Assay [1] in a line: Strawberry flavoured sugar sweetened yoghurt. As to conditions: 2 ppm, 1.5% fat yoghurt base, 8% sucrose, strawberry flavour 0.015%. From the text: Strawberry Flavoured Sugar Sweetened Yoghurt
The base consisted of a 1.5% fat yoghurt base, sweetened with 8% sucrose by weight, flavoured with a proprietary strawberry flavour @ 0.015%.

Assay [2] is described as follows: Comparison in a strawberry drink. The settings on record: 0.5 ppm, 7% sucrose, 0.1% citric acid, strawberry flavour 0.015%. From the text: Comparison in a Strawberry Drink
Base is 7% sucrose, 0.1% citric acid, and a proprietary strawberry flavour @0.015%

`CCCCCCCCCCCCCCCCCC(=O)NCCCC(=O)O` [C18:0-gaba]: the taste description entry in assay [1] is “juicy full, jammy”; in assay [2] it was “mild creamy, fruity, juicy and long lasting”.

The record behind these values is patent publication US11832638B2, “N-acyl derivatives of gamma amino-butyric acid and beta alanine as food flavouring compounds” (GIVAUDAN SA, priority 2012, dated 2023).
